Data set [1] deals with P. aeruginosa LESB58. Put plainly: In vitro synergy, checkerboard assay. Format: cell-based, Pseudomonas aeruginosa. As to conditions: MHB. As to the method:
(§1) For susceptibility testing under standard conditions, bacteria were cultured in Muller Hinton Broth MHB (Fort Richards Laboratories). Host mimicking conditions in vitro were simulated using tissue culture medium (TCM) consisting of Dulbecco’s modified Eagle medium (DMEM; Gibco #11965) supplemented with FBS (Moregate Biotech) (5% v/v) and glucose (1% w/v). Further susceptibility testing was also conducted in MHB supplemented with FBS (5% v/v) and DMEM supplemented with glucose (1% w/v) and MHB (10% v/v).
(§2) The P. aeruginosa LESB58.lux strain was used for in vitro synergy experiments with azithromycin in MHB and all antibiotic combinations in TCM to determine bacterial growth (as visual inspection and absorbance measurements were unreliable). Synergy was determined using the checkerboard method ([Berenbaum, 1978]; [Pletzer and Hancock, 2018]) in at least triplicate. Each antibiotic was two-fold serially diluted in sterile water before transferring to a 96-well plate containing 1 × 10^6 CFU mL^-1 bacteria in MHB or TCM. Plates were incubated at 37°C for 22-24 hours. The MIC alone or in combination was recorded as the lowest antibiotic concentration with no visible growth. For experiments using the LESB58.lux strain no visible growth was defined as an at least 95% reduction compared to the no antibiotic growth control in luminescence detected using a ClarioStar plate reader. The fractional inhibitory concentration index (FICI) was calculated as [(MICA in combination)/MICA] + [(MICB in combination)/MICB]. FICI values of 0.5 or below indicated synergy, while values above 0.5 up to and including 1 were taken to indicate additivity. FICI values above 1 indicate indifference or antagonism ([Odds, 2003]).

In another data set the test system is P. aeruginosa LESB58-lux. Put plainly: In vitro synergy, checkerboard assay (luminescence readout). As to conditions: TCM, LESB58-lux; for FICI, drug combined with CAZ / FICI, drug combined with CZA: FICI <= 0.5 indicates synergy. Format: cell-based, Pseudomonas aeruginosa. As to the method:
as §1, §2

Data set [2] concerns P. aeruginosa LESB58. Put plainly: Murine high density subcutaneous skin abscess model. Format: in vivo, Pseudomonas aeruginosa. As to conditions: Colistin. As to the method: Mice used in this study were female Swiss Webster aged approximately 6-7 weeks and sourced from the University of Otago Biomedical Research Facility. […] The subcutaneous abscess infection model was performed as previously described ([Pletzer et al., 2017]) with a higher inoculum. Briefly, the fur on the back of each mouse was removed by shaving and chemical depilation. Antibiotics were tested for skin toxicity by injecting 50 μL of antibiotic suspension subcutaneously into naïve mice, and subsequent inspection of the skin for inflammation on the next day. P. aeruginosa LESB58 was grown to mid-log phase in dYT broth, washed twice in sterile PBS (Gibco, pH 7.4), and resuspended in PBS to ~1 x 10^8 CFU per 50 μL inoculum. The bacterial suspension (50 μL) was injected subcutaneously into the right side of the dorsum, followed one hour later by 50 μL of antibiotic treatment injected directly into the infected area. […] Combination treatments were administered as a single 50 μL injection containing both antibiotics. The concentration of each antibiotic in the combination was the same as when it was used alone. Progression of the infection was monitored daily, and abscess dimensions were measured on day three using a calliper. On day three, abscess tissue and pus were excised, homogenized in sterile PBS using SPEX SamplePrep 1600 MiniG for five minutes and bacterial CFU counts determined by serial dilution. In this model, synergy was defined as being a significant difference between the combination treated group and the amalgamated group of single drug treated animals ([Fantin and Carbon, 1992]; [Pletzer et al., 2018]).
Statistical analysis was performed using GraphPad Prism 9.5.1. Bacterial CFU and abscess size data from in vivo experiments was analysed by Kruskal-Wallace test with Dunn’s correction for multiple comparisons. The data was considered significant when p-values were below 0.05 or 0.01 as indicated.

A further data set relates to P. aeruginosa PAO1. Description: Minimum inhibitory concentration, broth microdilution. Format: cell-based, Pseudomonas aeruginosa. As to the method: (§3) For susceptibility testing under standard conditions, bacteria were cultured in Muller Hinton Broth MHB (Fort Richards Laboratories). […] Further susceptibility testing was also conducted in MHB supplemented with FBS (5% v/v) and DMEM supplemented with glucose (1% w/v) and MHB (10% v/v).
The minimum inhibitory concentration (MIC) of each antibiotic was determined using the broth microdilution method in 96-well plates. […] Briefly, antibiotics were two-fold serially diluted in MHB or TCM prior to adding 1 × 10^6 CFU mL^-1 bacteria. Plates were incubated at 37°C for 22-24 hours. The MIC was recorded as the lowest antibiotic concentration with no visible growth and the median value of at least three biological replicates reported.

How the values of data set [3] were obtained:
Mice used in this study were female Swiss Webster aged approximately 6-7 weeks and sourced from the University of Otago Biomedical Research Facility. […] Briefly, the fur on the back of each mouse was removed by shaving and chemical depilation. Antibiotics were tested for skin toxicity by injecting 50 μL of antibiotic suspension subcutaneously into naïve mice, and subsequent inspection of the skin for inflammation on the next day. P. aeruginosa LESB58 was grown to mid-log phase in dYT broth, washed twice in sterile PBS (Gibco, pH 7.4), and resuspended in PBS to ~1 x 10^8 CFU per 50 μL inoculum. The bacterial suspension (50 μL) was injected subcutaneously into the right side of the dorsum, followed one hour later by 50 μL of antibiotic treatment injected directly into the infected area. […] Combination treatments were administered as a single 50 μL injection containing both antibiotics. The concentration of each antibiotic in the combination was the same as when it was used alone. Progression of the infection was monitored daily, and abscess dimensions were measured on day three using a calliper. On day three, abscess tissue and pus were excised, homogenized in sterile PBS using SPEX SamplePrep 1600 MiniG for five minutes and bacterial CFU counts determined by serial dilution.

Data set [4] has as its system P. aeruginosa LESB58. Put plainly: microbe, parasite or virus in culture. Format: cell-based, Pseudomonas aeruginosa. Conditions: for MIC in MHB / MIC in TCM: 20-24 h; for MIC in TCM: TCM (DMEM + 1% glucose + 5% FBS); for MIC: Pseudomonas aeruginosa. As to the method: as §3
The minimum inhibitory concentration (MIC) of each antibiotic was determined using the broth microdilution method in 96-well plates. […] Briefly, antibiotics were two-fold serially diluted in MHB or TCM prior to adding 1 × 10^6 CFU mL^-1 bacteria. […] The MIC was recorded as the lowest antibiotic concentration with no visible growth and the median value of at least three biological replicates reported.

The subject of data set [5] is P. aeruginosa LESB58. Put plainly: Minimum bactericidal concentration. Format: cell-based. Conditions: Pseudomonas aeruginosa. As to the method: as §1
The minimum bactericidal concentration (MBC) was determined by spotting 5 μL from wells of the MIC plate at or above the MIC onto antibiotic free dYT agar. Plates were incubated at 37°C for another 22-24 hours. The MBC was recorded as the lowest antibiotic concentration with no visible growth on agar plates and the median value reported.

The mark [6] stands for this setting: tigecycline and tobramycin groups, compared to the vehicle control, day 3.
Setting [7] is: 50 μL injected subcutaneously, skin inspected next day.

≈ marks a conversion by molar mass, not a printed value. Read-outs that look alike come from different tables or passages of the source. Peptide text beside a SMILES is read from it. Where only a bound is given, the exact number is not on record here.

From paper PMC11130353, “Using host-mimicking conditions and a murine cutaneous abscess model to identify synergistic antibiotic combinations effective against Pseudomonas aeruginosa” (Frontiers in Cellular and Infection Microbiology, 2024) come the findings set out here.

On to `CC[C@H](C)CCCCC(=O)N[C@@H](CCN)C(=O)N[C@H](C(=O)N[C@@H](CCN)C(=O)N[C@H]1CCNC(=O)[C@H]([C@@H](C)O)NC(=O)[C@H](CCN)NC(=O)[C@H](CCN)NC(=O)[C@H](CC(C)C)NC(=O)[C@@H](CC(C)C)NC(=O)[C@H](CCN)NC1=O)[C@@H](C)O` [CST, colistin] (HELM PEPTIDE1{[CC[C@H](C)CCCCC(=O)[*:2]].[Dab].T.[Dab].[Dab].[Dab].[dL].L.[Dab].[Dab].T}$PEPTIDE1,PEPTIDE1,5:R3-11:R2$$$V2.0), for which, in the data set with P. aeruginosa LESB58 [1], the “Fold decrease in CAZ MIC, drug combined with CAZ” value (from here on “Fold decrease in CAZ MIC”) came out at 4; the “Fold decrease in CZA MIC, drug combined with CZA” value is 4; the “Fold decrease in other MIC, drug combined with CAZ” value was determined as 8; the “Fold decrease in other MIC, drug combined with CZA” value is 8. Besides, the “FICI, drug combined with CAZ” value with P. aeruginosa LESB58 [1] (FICI <= 0.5 indicates synergy) is 0.38. For the same compound, in the data set on P. aeruginosa LESB58-lux, the “Fold decrease in CAZ MIC” value was determined as 8; the “Fold decrease in CZA MIC, drug combined with CZA” value worked out at 4; the “Fold decrease in other MIC, drug combined with CAZ” value is listed as 4; the “Fold decrease in other MIC, drug combined with CZA” value stood at 4. Moreover, in the data set with P. aeruginosa LESB58-lux, the “FICI, drug combined with CAZ” value was found to be 0.38 and the “FICI, drug combined with CZA” value is 0.5. In addition, in the data set with P. aeruginosa LESB58-lux (listed as colistin), the “FICI, drug combined with CAZ” value was “synergised” and the “FICI, drug combined with CZA” value is on record as “synergised”. The “Area of dermoncecrosis, Mean” value in the data set with P. aeruginosa LESB58 [2] (tigecycline and tobramycin groups (shared vehicle, CAZ and CZA mice), female Swiss Webster mice, 50 μL s.c. 1 h after infection, day 3, CAZ or CZA 50, CST 1.25, TGC 2.5, TOB 2 mg/mL, vehicle 0.9% saline) is 38.6 mm^2. In the data set with P. aeruginosa LESB58 [2] (setting [6]), the “Area of dermoncecrosis, % reduction” value is 58.9% and the “CFU per abscess, Fold change” value was -107.4. Further, in the data set with P. aeruginosa LESB58 [2] (tigecycline and tobramycin groups, compared to the vehicle control, day 3, listed as colistin), the “Area of dermoncecrosis, % reduction” value is listed as 59%. In addition, the “CFU per abscess, Geometric mean” value in the data set on P. aeruginosa LESB58 [2] (tigecycline and tobramycin groups, day 3) is 2.3 × 10^6 CFU per abscess. Besides, in the data set with P. aeruginosa LESB58 [2] (tigecycline, tobramycin experiments), the “Fold reduction of bacterial load (CFU) relative to vehicle” value is on record as approximately 107. The “MIC in MHB” value with P. aeruginosa PAO1 (MHB) is 2.5 µg/mL (≈ 2.14 µM). In addition, in the data set with P. aeruginosa PAO1 (MIC in TCM vs MIC in MHB), the “Fold change TCM vs MHB (MIC)” value is on record as 10. In addition, the “MIC in TCM” value in the data set on P. aeruginosa PAO1 (TCM) came out at 25 µg/mL (≈ 21.4 µM). In addition, in data set [3] (setting [7]), the “Highest tolerated dose tested” value was 2 mg/mL and the “Toxic (visible skin irritation, inflammation, blood vessels, swelling)” value was 5 mg/mL. In the data set with P. aeruginosa LESB58 [4], the “MIC in MHB” value was 3.13 µg/mL (≈ 2.68 µM) and the “MIC in TCM” value is 12.5 µg/mL.

Consider `NC(=O)[C@@H]1CC[C@@H]2CN1C(=O)N2OS(=O)(=O)O` [AVI, avibactam], for which, in the data set with P. aeruginosa LESB58-lux, the “Fold decrease in CAZ MIC” value was 8; the “Fold decrease in other MIC, drug combined with CAZ” value was 4; the “FICI, drug combined with CAZ” value was determined as 0.38. This compound yielded an MBC against P. aeruginosa LESB58 [5] (LESB58, MHB) of more than 125 µg/mL. Besides, the MBC in the data set with P. aeruginosa LESB58 [5] (LESB58, TCM (DMEM + 1% glucose + 5% FBS)) turned out to be 62.5 µg/mL. Moreover, the “Highest tolerated dose tested” value in data set [3] (female, Swiss Webster, mouse, in vivo, sc, 1 day) is 12 mg/mL. Further, in the data set on P. aeruginosa LESB58 [4] (listed as Avibactam), the “MIC in MHB” value was “no antimicrobial activity” and the “MIC in TCM” value was “significant antimicrobial activity”. In addition, in the data set on P. aeruginosa LESB58 [4] (listed as avibactam), the “MIC in MHB” value is “not observed” and the “MIC in TCM” value was “had anti-pseudomonal activity”. Besides, the MIC in the data set on P. aeruginosa LESB58 [4] (LESB58, read-out: MIC in MHB, MHB, 20-24 h) is more than 125 µg/mL. In the data set with P. aeruginosa LESB58 [4] (LESB58, read-out: MIC in TCM, TCM (DMEM + 1% glucose + 5% FBS), 20-24 h), the MIC worked out at 31.2 µg/mL.
